Values quoted from earlier work as cited in patent US20030103955A1 (priority 2000, published 2003).

How the values were obtained:
[1] = octanol/buffer phosphate, ph=7.4
cycloxygenase = conditions: with reduction of production of tissue prostaglandines PGF2 and PGE2
[2] = test system: arthritis induced by adjuvant; conditions: compared with aspirin

partition coefficient [1]: 13.0
activity of cycloxygenase (cycloxygenase): inhibits the activity of cycloxygenase
SMILES: O=C(O)Cc1ccccc1Nc1c(Cl)cccc1Cl [Diclofenac]
anti-inflammatory effect [2]: higher than that of aspirin
